# Test results from ChEMBL document CHEMBL6087462, “Cuminaldehyde Potentiates Antiproteolytic Peptide Efficacy via Parallel Pathways of Enhanced Inner Membrane-Damaging Activity and Inhibition of Bacterial Energy Metabolism” (J Med Chem, 2025).
# Assays:
# Staphylococcus aureus [1] = assay: Synergistic antimicrobial activity against Staphylococcus aureus 43300 assessed as fractional inhibitory concentration index in presence of carvacrol by checkerboard broth microdilution assay; assay type: functional
# [2] = Antimicrobial activity against Salmonella enterica subsp. enterica serovar Pullorum ATCC 7913 assessed as reduction in microbial growth in presence of cuminaldehyde by CLSI based broth microdilution method; assay type: functional
# Escherichia coli [3] = assay: Antimicrobial activity against Escherichia coli 078 assessed as cuminaldehyde MIC by CLSI based broth microdilution method; assay type: functional; details: 78
# Salmonella typhimurium = assay: Synergistic antimicrobial activity against Salmonella typhimurium 7731 assessed as fractional inhibitory concentration index in presence of perillaldehyde by checkerboard broth microdilution assay; assay type: functional, Salmonella enterica subsp. enterica serovar Typhimurium
# Enterococcus faecalis = assay: Synergistic antimicrobial activity against Enterococcus faecalis ATCC 29212 assessed as fractional inhibitory concentration by checkerboard broth microdilution assay; assay type: functional
# Staphylococcus aureus [4] = assay: Synergistic antimicrobial activity against Staphylococcus aureus 25923 assessed as fractional inhibitory concentration index in presence of perillaldehyde by checkerboard broth microdilution assay; assay type: functional
# Staphylococcus aureus [5] = assay: Synergistic antimicrobial activity against Staphylococcus aureus 29213 assessed as fractional inhibitory concentration index in presence of carvacrol by checkerboard broth microdilution assay; assay type: functional
# Escherichia coli [6] = assay: Synergistic antimicrobial activity against Escherichia coli 25922 assessed as fractional inhibitory concentration index in presence of citral by checkerboard broth microdilution assay; assay type: functional
# Staphylococcus aureus [7] = assay: Synergistic antimicrobial activity against Staphylococcus aureus 43300 assessed as fractional inhibitory concentration index in presence of cuminaldehyde by checkerboard broth microdilution assay; assay type: functional
structure (smiles),measurement,setting,value
CC[C@H](C)[C@H](NC(=O)[C@@H](NC(=O)[C@@H](CCCNC(=N)N)NC(=O)[C@H](C)NC(=O)[C@H](C)NC(=O)[C@@H](N)Cc1cccc2ccccc12)[C@@H](C)CC)C(=O)N[C@@H](CC(C)C)C(=O)N[C@H](CCCNC(=N)N)C(=O)N[C@@H](Cc1c[nH]c2ccccc12)C(=O)N[C@H](CCCNC(=N)N)C(=O)N[C@@H](Cc1ccccc1)C(=O)N[C@@H](CCCNC(=N)N)C(=O)O,fractional inhibitory concentration index (FICI),Staphylococcus aureus [1],0.75
same,MIC,[2],0.5 µg/mL
same,MIC,Escherichia coli [3],1020 µg/mL
same,fractional inhibitory concentration index (FICI),Salmonella typhimurium,0.254
same,FIC,Enterococcus faecalis,0.125
same,fractional inhibitory concentration index (FICI),Staphylococcus aureus [4],0.625
same,fractional inhibitory concentration index (FICI),Staphylococcus aureus [5],0.313
same,fractional inhibitory concentration index (FICI),Escherichia coli [6],0.25
same,fractional inhibitory concentration index (FICI),Staphylococcus aureus [7],0.375
